Results on one substance are retold here after patent US8591892B2, “FTY720 increases CD74 expression and sensitizes cancer cells to anti-CD74 antibody-mediated cell death” (The Ohio State University, priority 2011, dated 2013).

Data set [1] relates to primary tumor cells from MCL patients. Nature of the data set: Cell viability by annexin-V/PI staining and flow cytometry. The note with it: six MCL patients, 24 hours; FTY720 2.5 μM, immobilized milatuzumab 5 μg/ml. It counts as cell-based, human. How it is done:
FIG. 4. FTY720 sensitizes MCL cell lines and primary patient tumor cells to milatuzumab-mediated cytotoxicity. (A) Four MCL cell lines and primary cells from 6 patients were treated with FTY720 and/or milatuzumab plus cross-linking antibodies at the indicated concentrations. (B) Patient characteristics. (C) Individual patient responses. (D) Representative histograms summarizing patient responses. Cell death was determined by annexin V/PI staining and flow cytometry at 24 hours. Data are shown as the percentage of annexin V−/PI− cells (live cells) and are normalized to untreated controls.
Primary tumor cells were isolated from the peripheral blood/lymph nodes of patients with MCL. All patients studied were diagnosed with MCL according to the World Health Organization (WHO) classification of tumors (Swerdlow, 2008, World Health Organization Classification of Tumours of Haematopoetic and Lymphoid Tissues (ed 4th ed.) Lyon, France, International Agency on Research for Cancer). All samples contained at least 85% of CD19^+/CD20^+ B cells detected by flow cytometry. […]
To assess lysosomal volume, FTY720 treated cells were incubated with LYSOTRACKER™ green DND-26. […] Cell viability was measured at 24 hours by dual staining with annexin-V FITC and propidium iodide (PI). A total of 10,000 events were collected and analyzed using WinMDI. […]

Data set [2] has as its system Jeko cells engrafted in SCID mice. Nature of the data set: Preclinical model of human MCL in SCID mice, survival. It is filed as in vivo, mouse. The note with it: n=10/group, from day 15; FTY720 5 mg/kg i.p. daily 2 weeks; antibodies 15 mg/kg i.p. every three days.
Experimental: Evaluation of in vivo therapeutic activity of FTY720 and milatuzumab in the preclinical MCL model. SCID mice were injected i.v. with 40×10^6 JeKo cells and observed daily for signs of tumor burden.
Six to eight-week old female SCID mice (cb17 scid/scid) were purchased from Taconic Farms (Hudson, N.Y.) and maintained in pathogen-free, isolation cages. All animals were depleted of murine NK cells with intra-peritoneal (i.p.) injections of 0.2 mg of rat anti-mouse interleukin-2 receptor β monoclonal antibody (TMβ1) 1 day prior to engraftment with human tumor cell lines and then every week. Forty-eight hours post intravenous injection of 40×10^6 Jeko cells via tail vein, 50 mice were randomly distributed into 10 cages. Animals in groups of ten were treated starting at day 15 after engraftment. […] The third group was treated with FTY720 (5 mg/kg) every day for 2 weeks via i.p. The fourth group received milatuzumab (15 mg/kg) every three days, via i.p. injection. The fifth group received the combination of FTY720 and milatuzumab. Animals were monitored daily for signs of tumor burden, including hind limb paralysis, respiratory distress, weight loss, ruffled coat, and distended abdomen. Body weight was measured weekly for the first 3 weeks and then daily. […]
Data set [3] has as its system WSU-FSCCL NHL cells. Nature of the data set: Cytotoxicity of milatuzumab with GAH crosslinking, with and without IFN-γ. It is filed as cell-based. Particulars: in vitro. How it is done: (§1) We examined whether the ability of anti-CD74 MAbs to kill cancer cells can be increased by using IFN-γ as an inducer of antigen expression. Using a panel of diverse cancer cell lines (including NHL, MM, GBM, and pancreatic and colonic carcinomas), we examined IFN-γ-induced changes in surface and cytoplasmic CD74 expression. Sensitivity of the malignant cells to milatuzumab was assessed with and without IFN-γ by cytotoxicity assays.
(§2) The cytotoxicity of anti-CD74 antibodies was examined in the presence or absence of IFN-γ (not shown). As previously observed, in vitro cytotoxicity of milatuzumab required crosslinking (Stein, et al., Blood, 104: 3705-11, 2004). Goat anti-human IgG (GAH) was used for crosslinking in these experiments.

The subject of data set [4] is Capan-1, Aspc-1, LoVo, HT-29, U87, U118 cells. Briefly: Cytotoxicity of milatuzumab with and without crosslinking agent or IFN-γ. It is filed as cell-based. The note with it: regardless of crosslinking agent or IFN-γ. How it is done: as §1, §2
The conditions of data set [5]: multiple myeloma patients, 1.5 mg/kg twice weekly for 4 weeks; cited from earlier work.
The conditions of data set [6]: single agents, same dosage and delivery schedule; cited from earlier work.

Consider “milatuzumab: fully humanized monoclonal antibody specific for CD74”, for which, in data set [1], the average cell death was 50%. This substance had a median survival in data set [2] of 33.5 days. In data set [3], the “increased killing after IFN-γ exposure” value was found to be 33%. Further, in data set [4], the cell killing result is reported as “unable to kill”. For the same substance, in data set [5], the peak levels was 10 to 20 µg/mL. The “weight loss or other side effects” value in data set [6] is reported as “did not cause any observed weight loss or other significant side effects”.
